According to US8318762B2, “Pyrazolospiroketone acetyl-CoA carboxylase inhibitors” (Pfizer Inc., priority 2008, dated 2012):
Like-named read-outs stand apart in the source and are kept apart here.

Molecular target: T1, recombinant human ACC2 (Homo sapiens, UniProt O00763)
T1 construct: a full length Cytomax clone of ACC2 was purchased from Cambridge Bioscience Limited; made in house; host or cells: CHO cells (tetracycline induction, pcDNA5 FRT TO-TOPO); purified on a Softlink Soft Release Avidin column
Assay: Measurement of human ACC2 inhibition (recombinant hACC2 Transcreener ADP detection FP assay)
Type: biochemical
Description: [3] Measurement of human ACC2 inhibition. Human ACC2 inhibition was measured using purified recombinant human ACC2 (hrACC2). […] The ACC2 was expressed in CHO cells by tetracycline induction and harvested in 5 liters of DMEM/F12 with glutamine, biotin, hygromycin and blasticidin with 1 μg/mL tetracycline (Invitrogen, Carlsbad, Calif.). The conditioned medium containing ACC2 was then applied to a Softlink Soft Release Avidin column (Promega, Madison, Wis.) and eluted with 5 mM biotin. […] The purified ACC2 was dialyzed in 50 mM Tris, 200 mM NaCl, 4 mM DTT, 2 mM EDTA, and 5% glycerol. […] The final conditions for the assay were 50 mM HEPES, pH7.5, 5 mM MgCl2, 5 mM tripotassium citrate, 2 mM DTT, 0.5 mg/mL BSA, 30 μM acetyl-CoA, 50 μM ATP, and 8 mM KHCO3. Typically, a 10 μl reaction was run for 1 hour at room temperature, and 10 μl of Transcreener stop and detect buffer was added and incubated for an additional 1 hour.

[1] = recombinant hACC2 transcreener assay, read-out: rhACC2 IC50

T1 sequence (O00763 whole entry): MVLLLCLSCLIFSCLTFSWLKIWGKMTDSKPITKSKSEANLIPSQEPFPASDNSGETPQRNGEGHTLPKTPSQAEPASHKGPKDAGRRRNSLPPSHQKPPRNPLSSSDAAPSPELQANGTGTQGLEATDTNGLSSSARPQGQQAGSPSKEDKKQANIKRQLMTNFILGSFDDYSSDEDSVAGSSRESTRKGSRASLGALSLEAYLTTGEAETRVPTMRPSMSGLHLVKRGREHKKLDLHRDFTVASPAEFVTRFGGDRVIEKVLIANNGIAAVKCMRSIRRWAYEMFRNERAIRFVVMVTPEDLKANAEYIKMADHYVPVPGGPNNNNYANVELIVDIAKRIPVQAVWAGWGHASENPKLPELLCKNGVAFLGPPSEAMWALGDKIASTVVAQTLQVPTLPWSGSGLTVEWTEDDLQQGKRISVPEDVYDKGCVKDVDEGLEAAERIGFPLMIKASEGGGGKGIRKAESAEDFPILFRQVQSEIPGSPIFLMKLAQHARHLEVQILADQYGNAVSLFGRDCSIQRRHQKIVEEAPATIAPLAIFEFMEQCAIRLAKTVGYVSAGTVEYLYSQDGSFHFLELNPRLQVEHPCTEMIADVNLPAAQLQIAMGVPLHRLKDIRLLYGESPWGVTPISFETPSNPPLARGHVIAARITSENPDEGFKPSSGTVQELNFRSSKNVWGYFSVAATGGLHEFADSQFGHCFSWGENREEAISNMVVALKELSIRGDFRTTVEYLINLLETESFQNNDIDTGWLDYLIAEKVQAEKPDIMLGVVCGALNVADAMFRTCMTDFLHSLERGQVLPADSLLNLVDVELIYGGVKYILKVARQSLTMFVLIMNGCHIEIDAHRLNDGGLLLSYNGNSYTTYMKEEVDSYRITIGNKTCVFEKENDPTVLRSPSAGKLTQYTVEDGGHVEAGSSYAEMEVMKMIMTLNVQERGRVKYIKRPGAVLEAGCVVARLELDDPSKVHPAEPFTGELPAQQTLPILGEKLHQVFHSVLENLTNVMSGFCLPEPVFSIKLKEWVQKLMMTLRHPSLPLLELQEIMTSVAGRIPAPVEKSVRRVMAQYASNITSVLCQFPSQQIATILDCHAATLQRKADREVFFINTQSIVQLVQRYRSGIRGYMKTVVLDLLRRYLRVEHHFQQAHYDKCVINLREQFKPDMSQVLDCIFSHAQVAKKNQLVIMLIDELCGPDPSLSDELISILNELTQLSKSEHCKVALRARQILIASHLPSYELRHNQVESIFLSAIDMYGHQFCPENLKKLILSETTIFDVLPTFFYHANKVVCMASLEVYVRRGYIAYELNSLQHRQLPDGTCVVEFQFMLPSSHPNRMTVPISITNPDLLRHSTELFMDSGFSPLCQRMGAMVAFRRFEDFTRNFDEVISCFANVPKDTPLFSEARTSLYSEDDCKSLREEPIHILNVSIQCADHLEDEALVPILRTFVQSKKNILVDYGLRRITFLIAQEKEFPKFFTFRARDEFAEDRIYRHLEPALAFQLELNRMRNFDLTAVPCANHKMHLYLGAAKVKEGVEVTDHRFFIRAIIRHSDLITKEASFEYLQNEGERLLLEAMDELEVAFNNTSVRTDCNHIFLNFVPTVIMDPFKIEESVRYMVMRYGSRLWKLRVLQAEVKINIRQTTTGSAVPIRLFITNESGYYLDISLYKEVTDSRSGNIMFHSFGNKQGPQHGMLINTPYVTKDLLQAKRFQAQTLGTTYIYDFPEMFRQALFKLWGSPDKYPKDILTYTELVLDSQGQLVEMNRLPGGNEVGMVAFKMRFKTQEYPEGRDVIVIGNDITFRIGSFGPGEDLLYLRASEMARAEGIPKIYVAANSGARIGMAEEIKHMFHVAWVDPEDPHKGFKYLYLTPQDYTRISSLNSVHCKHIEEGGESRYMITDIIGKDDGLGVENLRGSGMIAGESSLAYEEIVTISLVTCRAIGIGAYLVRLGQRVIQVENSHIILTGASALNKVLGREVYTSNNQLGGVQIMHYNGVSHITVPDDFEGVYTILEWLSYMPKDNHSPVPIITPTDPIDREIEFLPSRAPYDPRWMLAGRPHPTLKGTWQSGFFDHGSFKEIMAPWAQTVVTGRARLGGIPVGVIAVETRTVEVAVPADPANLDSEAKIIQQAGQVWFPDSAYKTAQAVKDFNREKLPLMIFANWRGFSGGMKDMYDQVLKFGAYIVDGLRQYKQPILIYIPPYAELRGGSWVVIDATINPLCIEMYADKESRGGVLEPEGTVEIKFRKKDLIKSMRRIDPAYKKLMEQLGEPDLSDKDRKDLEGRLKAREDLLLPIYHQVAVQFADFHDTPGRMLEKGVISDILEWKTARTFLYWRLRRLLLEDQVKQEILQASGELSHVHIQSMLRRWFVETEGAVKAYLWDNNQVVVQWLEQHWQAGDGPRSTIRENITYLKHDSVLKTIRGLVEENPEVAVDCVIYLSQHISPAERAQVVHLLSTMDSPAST

SMILES | IC50 [1] [nM] | IC50 [nM]
Cc1cc(C(=O)N2CCC3(CC2)CC(=O)c2nn(C4CCCC4)cc2O3)cc2c(Cl)n[nH]c12 [1.107] | 3 | –
CC(C)n1cc2c(n1)C(=O)CC1(CCN(C(=O)c3ccc4[nH]ncc4c3)CC1)O2 [1.067] | 50 | –
Cc1cc(C(=O)N2CCC3(CC2)CC(=O)c2nn(C(C)(C)C)c(C)c2O3)cc2cn[nH]c12 [1.043] | 43 | –
CC(C)(C)n1cc2c(n1)C(=O)CC1(CCN(C(=O)c3ccc4c(c3)NC(=O)CO4)CC1)O2 [12.005] | 45 | –
CCc1cc(C(=O)N2CCC3(CC2)CC(=O)c2nn(CC)c(C)c2O3)cc2cn[nH]c12 [1.056] | 35 | –
CCn1nc2c(c1C)OC1(CCN(C(=O)c3ccc4c(c3)nc(O)n4C)CC1)CC2=O [8.011] | 186 | –
CCn1nc2c(c1C)OC1(CCN(C(=O)c3ccc4sc(C)nc4c3)CC1)CC2=O [14.002] | 176 | –
COc1cc(C(=O)N2CCC3(CC2)CC(=O)c2nn(C(C)(C)C)cc2O3)cc2c(C)n[nH]c12 [1.076] | 2 | –
CCn1cc2c(n1)C(=O)CC1(CCN(C(=O)c3cc(OC)c4[nH]nc(C)c4c3)CC1)O2 [1.079] | 12 | –
CCn1cc2c(n1)C(=O)CC1(CCN(C(=O)c3cc(C)c4nc(C)[nH]c4c3)CC1)O2 [3.004] | 111 | –
CCn1cc2c(n1)C(=O)CC1(CCN(C(=O)c3ccc4c(C)n[nH]c4c3)CC1)O2 [2.024] | 60 | –
Cc1cc(C(=O)N2CCC3(CC2)CC(=O)c2nn(C4CCC4)c(C)c2O3)cc2cn[nH]c12 [1.128] | 8 | –
Cc1n[nH]c2c(C)cc(C(=O)N3CCC4(CC3)CC(=O)c3nn(C5CCC5)c(C)c3O4)cc12 [1.126] | 3 | –
CCn1nc2c(c1C)OC1(CCN(C(=O)c3cc(C)c4sncc4c3)CC1)CC2=O [7.008] | 93 | –
CC(C)(C)n1cc2c(n1)C(=O)CC1(CCN(C(=O)c3ccc4cnoc4c3)CC1)O2 [23.005] | 158 | –
CCc1c2c(nn1C)C(=O)CC1(CCN(C(=O)c3cc(C)c4[nH]nc(C)c4c3)CC1)O2 [1.007] | 189 | –
COc1cc(C(=O)N2CCC3(CC2)CC(=O)c2nn(C(C)(C)C)c(C)c2O3)cc2cn[nH]c12 [1.054] | 29 | –
CCn1nc2c(c1C)OC1(CCN(C(=O)c3ccc4ccccc4c3)CC1)CC2=O [6.007] | 40 | –
CCn1nc2c(c1C)OC1(CCN(C(=O)c3ccc4c(c3)OCC(=O)N4)CC1)CC2=O [13.002] | 861 | –
CCn1nc2c(c1C)OC1(CCN(C(=O)c3ccc4c(c3)N(C)C(=O)CC4)CC1)CC2=O [12.001] | 299 | –
CCCn1cc2c(n1)C(=O)CC1(CCN(C(=O)c3ccc4[nH]nc(C)c4c3)CC1)O2 [1.082] | 53 | –
CCn1nc2c(c1C)OC1(CCN(C(=O)c3ccc4oncc4c3)CC1)CC2=O [22.003] | > 1000 | –
CCn1nc2c(c1C)OC1(CCN(C(=O)c3ccc4c(C)noc4c3)CC1)CC2=O [23.003] | 335 | –
Cc1cc(C(=O)N2CCC3(CC2)CC(=O)c2nn(C(C)(C)C)cc2O3)cc2cnsc12 [7.007] | 5 | –
Cc1n[nH]c2c(C)cc(C(=O)N3CCC4(CC3)CC(=O)c3nn(C(C)C)cc3O4)cc12 [1.002] | 8 | –

SMILES | IC50 [1] [nM] | IC50 [nM]
CCn1nc2c(c1C)OC1(CCN(C(=O)c3cc(F)c4cn[nH]c4c3)CC1)CC2=O [2.016] | 200 | –
COc1cc(-n2nc3c(c2C)OC2(CCN(C(=O)c4cc(C)c5[nH]ncc5c4)CC2)CC3=O)ccc1C#N [1.028] | 127 | –
CC(C)(C)n1cc2c(n1)C(=O)CC1(CCN(C(=O)c3ccc4cc[nH]c(=O)c4c3)CC1)O2 [21.001] | 16 | –
Cc1n[nH]c2c(C)cc(C(=O)N3CCC4(CC3)CC(=O)c3nn(C5CC5)cc3O4)cc12 [1.143] | 7 | –
CCc1cc(C(=O)N2CCC3(CC2)CC(=O)c2nn(C(C)(C)C)cc2O3)cc2cn[nH]c12 [1.060] | 6 | –
Cc1n[nH]c2c(Cl)cc(C(=O)N3CCC4(CC3)CC(=O)c3nn(C(C)C)cc3O4)cc12 [1.102] | 5 | –
Cc1nc2c(F)cc(C(=O)N3CCC4(CC3)CC(=O)c3nn(C(C)(C)C)cc3O4)cc2[nH]1 [3.019] | 17 | –
Cc1n[nH]c2cc(C(=O)N3CCC4(CC3)CC(=O)c3nn(C(C)C)cc3O4)ccc12 [2.005] | 33 | –
Cc1cc(C(=O)N2CCC3(CC2)CC(=O)c2nn(C)c(C)c2O3)cc2cn[nH]c12 [1.030] | 376 | –
Cc1n[nH]c2c(C)cc(C(=O)N3CCC4(CC3)CC(=O)c3nn(C(C)C)c(C)c3O4)cc12 [1.013] | 8 | –
COc1cc(C(=O)N2CCC3(CC2)CC(=O)c2nn(C(C)C)cc2O3)cc2cn[nH]c12 [1.051] | 17 | –
COc1cc(C(=O)N2CCC3(CC2)CC(=O)c2nn(C(C)C)c(C)c2O3)cc2c(C)n[nH]c12 [1.078] | 4 | –
Cc1n[nH]c2cc(C(=O)N3CCC4(CC3)CC(=O)c3nn(C(C)(C)C)cc3O4)ccc12 [2.010] | 28 | –
Cc1cc(C(=O)N2CCC3(CC2)CC(=O)c2nn(C(C)(C)C)cc2O3)cc2ncn(C)c12 [8.001] | 36 | –
CCn1nc2c(c1C)OC1(CCN(C(=O)c3ccc4nn(C)cc4c3)CC1)CC2=O [25.004] | 122 | –
CCc1cc(C(=O)N2CCC3(CC2)CC(=O)c2nn(CC)c(C)c2O3)cc2c(C)n[nH]c12 [1.113] | 10 | –
Cc1n[nH]c2ccc(C(=O)N3CCC4(CC3)CC(=O)c3nn(C(C)(C)C)cc3O4)cc12 [1.086] | 3 | –
CCn1nc2c(c1C)OC1(CCN(C(=O)c3cc(C)c4nc[nH]c4c3)CC1)CC2=O [3.005] | – | 79
Cc1n[nH]c2c(C)cc(C(=O)N3CCC4(CC3)CC(=O)c3nn(CC(C)C)cc3O4)cc12 [1.134] | 10 | –
COc1cc(C(=O)N2CCC3(CC2)CC(=O)c2nn(C(C)(C)C)cc2O3)cc2nc(C)oc12 [9.003] | 29 | –
Cc1cc(C(=O)N2CCC3(CC2)CC(=O)c2nn(C(C)C)c(C)c2O3)cc2[nH]cnc12 [3.017] | 14 | –
Cn1ccc2ccc(C(=O)N3CCC4(CC3)CC(=O)c3nn(C(C)(C)C)cc3O4)cc21 [18.001] | 3 | –
CCn1nc2c(c1C)OC1(CCN(C(=O)c3ccc4c(cnn4C)c3)CC1)CC2=O [1.112] | 79 | –
CC(C)(C)n1cc2c(n1)C(=O)CC1(CCN(C(=O)c3ccc4[nH]nc(Cl)c4c3)CC1)O2 [1.103] | 5 | –
Cc1nc2cc(C(=O)N3CCC4(CC3)CC(=O)c3nn(C(C)(C)C)cc3O4)ccc2s1 [14.001] | 7 | –

SMILES | IC50 [1] [nM] | IC50 [nM]
Cc1c2c(nn1C(C)(C)C)C(=O)CC1(CCN(C(=O)c3ccc4[nH]ncc4c3)CC1)O2 [1.072] | 61 | –
Cc1c2c(nn1C)C(=O)CC1(CCN(C(=O)c3cc(Cl)c4[nH]ncc4c3)CC1)O2 [1.063] | 137 | –
CCc1n[nH]c2c(OC)cc(C(=O)N3CCC4(CC3)CC(=O)c3nn(C(C)(C)C)cc3O4)cc12 [1.047] | 2 | –
Cc1nc2ccc(C(=O)N3CCC4(CC3)CC(=O)c3nn(C(C)C)cc3O4)cc2[nH]1 [3.012] | 129 | –
Cc1cc(C(=O)N2CCC3(CC2)CC(=O)c2nn(C4CCC4)cc2O3)cc2[nH]cnc12 [3.006] | 55 | –
Cc1nc2ccc(C(=O)N3CCC4(CC3)CC(=O)c3nn(C(C)(C)C)cc3O4)cc2[nH]1 [3.011] | 15 | –
Cc1cc(C(=O)N2CCC3(CC2)CC(=O)c2nn(C4CCOC4)c(C)c2O3)cc2cn[nH]c12 (stereo not drawn) [1.041] | 46 | –
Cc1noc2cc(C(=O)N3CCC4(CC3)CC(=O)c3nn(C(C)C)cc3O4)ccc12 [23.001] | 585 | –
Cc1cc(C(=O)N2CCC3(CC2)CC(=O)c2nn(C(C)C)cc2O3)cc2c(Cl)n[nH]c12 [1.104] | 4 | –
CCn1nc2c(c1C)OC1(CCN(C(=O)c3cc(C)c4ncn(C)c4c3)CC1)CC2=O [3.025] | 49 | –
Cc1cc(C(=O)N2CCC3(CC2)CC(=O)c2nn(C(C)C)cc2O3)cc2[nH]cnc12 [3.007] | 24 | –
CCc1n[nH]c2c(Cl)cc(C(=O)N3CCC4(CC3)CC(=O)c3nn(CC)cc3O4)cc12 [1.101] | 45 | –
CC(C)(C)n1cc2c(n1)C(=O)CC1(CCN(C(=O)c3ccc4cn[nH]c4c3)CC1)O2 [2.012] | 7 | –
Cc1cc(C(=O)N2CCC3(CC2)CC(=O)c2nn(CC(C)C)c(C)c2O3)cc2cn[nH]c12 [1.130] | 13 | –
CCn1nc2c(c1C)OC1(CCN(C(=O)c3ccc4ncn(C)c4c3)CC1)CC2=O [3.016] | 271 | –
CCc1n[nH]c2c(C)cc(C(=O)N3CCC4(CC3)CC(=O)c3nn(C(C)(C)C)cc3O4)cc12 [1.020] | 3 | –
CCc1n[nH]c2c(OC)cc(C(=O)N3CCC4(CC3)CC(=O)c3nn(CC)cc3O4)cc12 [1.046] | 29 | –
Cc1cc(C(=O)N2CCC3(CC2)CC(=O)c2nn(C4CCCCC4)cc2O3)cc2cn[nH]c12 [1.037] | 60 | –
Cc1cc(C(=O)N2CCC3(CC2)CC(=O)c2nn(C(C)(C)C)cc2O3)cc2c(Cl)n[nH]c12 [1.105] | 2 | –
CCn1nc2c(c1C)OC1(CCN(C(=O)c3ccc4c(c3)ncn4C)CC1)CC2=O [8.005] | 159 | –
CCn1nc2c(c1C)OC1(CCN(C(=O)c3ccc4ccc(OC)cc4c3)CC1)CC2=O [6.001] | 13 | –
CCn1nc2c(c1C)OC1(CCN(C(=O)c3cc(OC)c4oc(C)nc4c3)CC1)CC2=O [9.005] | 179 | –
Cc1nc2ccc(C(=O)N3CCC4(CC3)CC(=O)c3nn(C(C)(C)C)cc3O4)cc2n1C [3.027] | 42 | –
Cc1c2c(nn1C(C)C)C(=O)CC1(CCN(C(=O)c3ccc4[nH]ncc4c3)CC1)O2 [1.073] | 35 | –
CCCn1cc2c(n1)C(=O)CC1(CCN(C(=O)c3cc(C)c4[nH]nc(Cl)c4c3)CC1)O2 [1.109] | 12 | –
